Source: ChEMBL document CHEMBL1201862, “PubChem BioAssay data set” (2004)
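Following 48 hours of exposure in 96-well plates, responses at five concentrations were used to interpolate endpoints linearly. GI50 marks 50% less growth.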 The source made the active and inactive calls. No stated cut-off is given here; in the data, active = GI50 up to about 1.1 µM and inactive = higher.

Experiments:
Assay in all cases: inhibition of tumour cell growth, NCI panel, 48 h
[1] = system: BT-549
[2] = system: DU-145
[3] = system: EKVX
[4] = system: HCT-116
[5] = system: HCT-15
[6] = system: HOP-92
[7] = system: HT-29
[8] = system: MCF7
[9] = system: Malme-3M
[10] = system: NCI-H460
[11] = system: NCI/ADR-RES
[12] = system: OVCAR-3
[13] = system: SF-539
[14] = system: SK-MEL-5
[15] = system: SNB-19
[16] = system: SNB-75
[17] = system: UACC-257
[18] = system: UACC-62
[19] = system: LOX IMVI
[20] = system: MDA-MB-231

SMILES | GI50 [1] | GI50 [2] | GI50 [3] | GI50 [4] | GI50 [5] [µM] | GI50 [6] | GI50 [7] | GI50 [8] | GI50 [9] | GI50 [10] | GI50 [11] | GI50 [12] | GI50 [13] | GI50 [14] | GI50 [15] | GI50 [16] | GI50 [17] | GI50 [18] | GI50 [19] | GI50 [20]
COC(=O)[C@@]12CSC[C@]1(C(=O)OC)N[C@@H](c1ccccc1O)C2 | > 100 µM (inactive) | > 100 µM (inactive) | > 100 µM (inactive) | > 100 µM (inactive) | > 100 | > 100 µM (inactive) | > 100 µM (inactive) | > 100 µM (inactive) | > 100 µM (inactive) | > 100 µM (inactive) | > 100 µM (inactive) | > 100 µM (inactive) | > 100 µM (inactive) | > 100 µM (inactive) | > 100 µM (inactive) | > 100 µM (inactive) | > 100 µM (inactive) | > 100 µM (inactive) |  | 
CN(CCO)CCCC1COc2ccccc2O1 (stereo not given) | > 100 µM (inactive) | > 100 µM (inactive) | 73.3 µM (inactive) | > 100 µM (inactive) | > 100 | > 100 µM (inactive) | > 100 µM (inactive) | > 100 µM (inactive) | > 100 µM (inactive) | > 100 µM (inactive) | > 100 µM (inactive) | > 100 µM (inactive) | > 100 µM (inactive) | > 100 µM (inactive) | > 100 µM (inactive) | > 100 µM (inactive) | > 100 µM (inactive) | > 100 µM (inactive) |  | 
CC1(C#N)CC(C)(C)C(/C=C2/CC(C)(C)C(/C=C3/OC(=N)CC3(C)C)=N2)=N1 (stereo not given) |  | 33.7 µM (inactive) | 21.7 µM (inactive) | 28.9 µM (inactive) | 17.9 | 12 µM (inactive) | 27.2 µM (inactive) | 12.3 µM (inactive) | 0.564 µM (active) | 15.8 µM (inactive) | 18.2 µM (inactive) | 20 µM (inactive) | 62.2 µM (inactive) | 16.6 µM (inactive) | 32.7 µM (inactive) | 31 µM (inactive) | 18.8 µM (inactive) | 20.7 µM (inactive) | 36.2 µM (inactive) | 33.6 µM (inactive)
COC1(CCO)CC=CCC1(CCO)OC (stereo not given) | > 100 µM (inactive) | > 100 µM (inactive) | > 100 µM (inactive) | > 100 µM (inactive) | > 100 | > 100 µM (inactive) | > 100 µM (inactive) | > 100 µM (inactive) | > 100 µM (inactive) | > 100 µM (inactive) | > 100 µM (inactive) | > 100 µM (inactive) |  | > 100 µM (inactive) | > 100 µM (inactive) | > 100 µM (inactive) | > 100 µM (inactive) | > 100 µM (inactive) | > 100 µM (inactive) | 
O=C1CCCC1C(O)(C(F)(F)F)C(F)(F)F (stereo not given) |  | > 100 µM (inactive) | > 100 µM (inactive) | > 100 µM (inactive) | > 100 | > 100 µM (inactive) | > 100 µM (inactive) | > 100 µM (inactive) | > 100 µM (inactive) | > 100 µM (inactive) | > 100 µM (inactive) | > 100 µM (inactive) | > 100 µM (inactive) | > 100 µM (inactive) | > 100 µM (inactive) | > 100 µM (inactive) | > 100 µM (inactive) | > 100 µM (inactive) | > 100 µM (inactive) | > 100 µM (inactive)
COc1c(Br)cc(/C=C(\C#N)c2cccnc2)cc1Br | 30.5 µM (inactive) | > 100 µM (inactive) | 4.31 µM (inactive) | > 100 µM (inactive) | 33.5 | 23.1 µM (inactive) | 26.4 µM (inactive) | 35.8 µM (inactive) | > 100 µM (inactive) | 37.8 µM (inactive) | 34.9 µM (inactive) | 99.1 µM (inactive) | 43.7 µM (inactive) | 43.7 µM (inactive) | > 100 µM (inactive) | > 100 µM (inactive) | > 100 µM (inactive) | > 100 µM (inactive) |  | 
COC(CCC[N+](C)(C)C)CC[N+](C)(C)C (stereo not given) | > 100 µM (inactive) | > 100 µM (inactive) | > 100 µM (inactive) | > 100 µM (inactive) | > 100 |  | > 100 µM (inactive) | > 100 µM (inactive) | > 100 µM (inactive) | > 100 µM (inactive) | > 100 µM (inactive) | > 100 µM (inactive) | > 100 µM (inactive) | > 100 µM (inactive) | > 100 µM (inactive) | > 100 µM (inactive) | > 100 µM (inactive) | > 100 µM (inactive) |  | 
Cc1nnc2sc(-c3ccc(N)cc3)nn12 |  | > 100 µM (inactive) | > 100 µM (inactive) | > 100 µM (inactive) | > 100 | > 100 µM (inactive) | > 100 µM (inactive) | > 100 µM (inactive) | > 100 µM (inactive) | > 100 µM (inactive) | > 100 µM (inactive) | > 100 µM (inactive) | > 100 µM (inactive) | > 100 µM (inactive) | > 100 µM (inactive) | 21.3 µM (inactive) | > 100 µM (inactive) | > 100 µM (inactive) |  | > 100 µM (inactive)
